Experimental data from PubChem BioAssay (NCI).
Values joined by “and” are separate entries in the source; they are usually repeats but may differ in a detail not shown here. Equal entries are not always repeated.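 Tested at 5 concentrations; 48 h exposure; 96-well plates; endpoints linearly interpolated, else capped at highest concentration. GI50 is the concentration that inhibits growth by half. TGI denotes the concentration required for complete inhibition of growth.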

Tests used:
Assay in all cases: NCI tumour cell line growth inhibition, 48 h
SK-OV-3 ovarian = test system: SK-OV-3 ovarian
SNB-19 CNS = test system: SNB-19 CNS
HL-60(TB) leukemia = test system: HL-60(TB) leukemia
HCC-2998 colon = test system: HCC-2998 colon
RPMI-8226 leukemia = test system: RPMI-8226 leukemia
CCRF-CEM leukemia = test system: CCRF-CEM leukemia
TK-10 renal = test system: TK-10 renal
COLO 205 colon = test system: COLO 205 colon
UACC-62 melanoma = test system: UACC-62 melanoma
MOLT-4 leukemia = test system: MOLT-4 leukemia

SMILES	GI50 (SK-OV-3 ovarian)	TGI (SK-OV-3 ovarian)	GI50 (SNB-19 CNS)	TGI (SNB-19 CNS)	GI50 (HL-60(TB) leukemia)	TGI (HL-60(TB) leukemia)	GI50 (HCC-2998 colon)	TGI (HCC-2998 colon)	GI50 (RPMI-8226 leukemia)	TGI (RPMI-8226 leukemia)	GI50 (CCRF-CEM leukemia)	TGI (CCRF-CEM leukemia)	GI50 (TK-10 renal)	TGI (TK-10 renal)	GI50 (COLO 205 colon)	TGI (COLO 205 colon)	GI50 (UACC-62 melanoma)	TGI (UACC-62 melanoma)	GI50 (MOLT-4 leukemia)	TGI (MOLT-4 leukemia)
O=C(Nc1cccc(C(F)(F)F)c1)Nc1ccc(OCc2nnc(-c3ccccc3)o2)c(F)c1	5.57 µM	27.3 µM	4.4 µM	35.5 µM	2.58 µM	6.4 µM	6.4 µM	59.8 µM	1.67 µM	6.2 µM	3.29 µM	54.9 µM	20.5 µM	68.9 µM	2.47 µM	10.6 µM	4.1 µM	24.6 µM	3.59 µM	39.8 µM
CN(C)C(=O)c1cc2cnc(Nc3ccc(N4CCNCC4)cn3)nc2n1C1CCCC1	34.8 µM	> 100 µM	14.2 µM	> 100 µM	1.74 µM	28.1 µM	27.8 µM	> 100 µM	2.62 µM	30 µM	2.92 µM	> 100 µM	4.37 µM	> 100 µM	1.75 µM	26.5 µM	15.4 µM	34 µM	1.8 µM	34.5 µM
O=C1OC(c2ccccc2)=N/C1=C\c1ccc(N(CCCl)CCCl)cc1	–	> 100 µM	–	> 100 µM	–	> 100 µM	–	> 100 µM	–	> 100 µM	–	> 100 µM	–	> 100 µM	–	> 100 µM	–	> 100 µM	–	> 79.9 µM
O=C(Nc1ccccc1)Oc1ccccc1C1CCCCC1	–	> 100 µM	–	> 100 µM	–	35.2 µM	–	81.5 µM	–	52 µM	–	67.3 µM	–	> 100 µM	–	30.6 µM	–	> 100 µM	–	> 100 µM
CCCCc1c2c(nc3c1CC/C(=C\c1ccccc1)C3=O)CCCC2	–	22.9 µM	–	12.6 µM	–	10.3 µM	–	8.34 µM	–	7.04 µM	–	29.4 µM	–	21.1 µM	–	23.1 µM	–	7.04 µM	–	11.7 µM
Cc1c(C(=O)C/C(=N/NC(=O)CC#N)C(N)=O)[n+](=O)c2ccccc2n1[O-]	–	> 100 µM	–	> 100 µM	–	69.4 µM	–	> 100 µM	–	> 100 µM	–	> 100 µM	–	> 100 µM	–	> 100 µM	–	> 100 µM	–	> 100 µM
COc1ccc(S(=O)(=O)NCCCNc2nccc(-c3c(-c4ccc(F)cc4)nc4sccn34)n2)cc1	8.11 µM	> 100 µM	40.2 µM	> 100 µM	7.51 µM	> 100 µM	11.8 µM	56.7 µM	6.25 µM	58.2 µM	4.42 µM	> 100 µM	11.8 µM	> 100 µM	5.58 µM	73.9 µM	3.38 µM	74.8 µM	5.7 µM	> 100 µM
O=C(O)C12C3C4C1C1C2C3C41I (configuration not stated)	–	> 100 µM	–	> 100 µM	–	> 100 µM	–	> 100 µM	–	> 100 µM	–	> 100 µM	–	> 100 µM	–	> 100 µM	–	> 100 µM	–	> 100 µM
Cn1c(=O)c(Oc2ccc(F)cc2F)cc2cnc(NC3CCC(O)CC3)nc21 (configuration not stated)	> 25 µM	> 25 µM	> 25 µM	> 25 µM	> 25 µM	> 25 µM	> 25 µM	> 25 µM	> 25 µM	> 25 µM	> 25 µM	> 25 µM	24.6 µM	> 25 µM	> 25 µM	> 25 µM	> 25 µM	> 25 µM	> 25 µM	> 25 µM
CCOC(=O)C1=C(O)c2c(OC)ccc(OC)c2C(=O)C1=O	–	> 100 µM	–	> 100 µM	–	> 100 µM	–	> 100 µM	–	> 100 µM	–	> 100 µM	–	> 100 µM	–	> 100 µM	–	> 100 µM	–	> 100 µM
Nc1ccc(N)c2c1C(=O)c1cccc([N+](=O)[O-])c1C2=O	3.43 µM	> 100 µM	2.4 µM	> 30.4 µM	3.65 µM	> 41.1 µM	0.373 µM	1.49 µM	2.82 µM	> 100 µM	7.95 µM	> 100 µM	3.21 µM	> 71.8 µM	4.17 µM	> 55.4 µM	1.2 µM	5.65 µM	8.33 µM	> 91.4 µM
O=C1C(=O)c2c(ccc3ccccc23)-c2ccccc21	2.05 µM	5.06 µM	2.43 µM	7.97 µM	2.83 µM	5.85 µM	2.65 µM	7.75 µM	0.752 µM	5.26 µM	2.17 µM	> 100 µM	2.17 µM	7.54 µM	2.24 µM	6.55 µM	1.57 µM	3.38 µM	2.37 µM	6.83 µM
CC(C)(CCc1nc2ccccc2[nH]1)C(=O)O	–	> 100 µM	–	> 100 µM	–	> 100 µM	–	> 100 µM	–	> 100 µM	–	> 100 µM	–	> 100 µM	–	> 100 µM	–	> 100 µM	–	> 100 µM
CC(=O)OCC1OC(OC(C)=O)C(NC#N)C(OC(C)=O)C1OC(C)=O (configuration not stated)	–	> 100 µM	–	> 100 µM	–	> 100 µM	–	> 100 µM	–	> 100 µM	–	> 100 µM	–	> 100 µM	–	> 100 µM	–	> 100 µM	–	> 100 µM
CCOC(=O)NC/C=C/CO	–	> 100 µM	–	> 100 µM	–	> 100 µM	–	> 100 µM	–	> 100 µM	–	> 100 µM	–	> 100 µM	–	> 100 µM	–	> 100 µM	–	> 100 µM
Cc1c(N)nc(C2CC(=O)N2CC(N)C(N)=O)nc1C(=O)NC(C(=O)NC(C)C(O)C(C)C(=O)NC(C(=O)NCCc1nc(-c2nc(C(=O)NCCNCC(C)O)cs2)cs1)C(C)O)C(OC1OC(CO)C(O)C(O)C1OC1OC(CO)C(O)C(OC(N)=O)C1O)c1cnc[nH]1 (configuration not stated)	10.6 µM	50 µM and > 32.9 µM	13.6 µM	50 µM and > 100 µM	24.4 µM	50 µM and > 37.4 µM	–	> 100 µM	> 50 µM	> 50 µM	12.6 µM	50 µM and > 33 µM	11.1 µM	50 µM and > 100 µM	33.6 µM	50 µM and 36.6 µM	0.756 µM	6.43 µM and 7.31 µM	4.23 µM	50 µM and 6.66 µM
O=C(Nc1cccc(C(F)(F)F)c1)Nc1cc(S(=O)(=O)NC2CC2)ccc1-c1ccsc1	4.39 µM	17 µM	2.99 µM	13 µM	3.01 µM	8.03 µM	6.15 µM	19.8 µM	2.57 µM	8.22 µM	3.25 µM	18.3 µM	4.65 µM	17.2 µM	2.71 µM	7.41 µM	2.93 µM	13.8 µM	3.02 µM	9.53 µM
COc1ccc(Cl)cc1Nc1nc(C(F)(F)F)ccc1C(=O)N/N=C/c1ccc(Cl)cc1	1.95 µM	22.9 µM	6.42 µM	> 100 µM	7.58 µM	22 µM	2.67 µM	> 100 µM	3.5 µM	> 100 µM	0.594 µM	10.3 µM	0.513 µM	16.8 µM	2.76 µM	> 100 µM	8.01 µM	40.9 µM	1.76 µM	11.1 µM
CN1OC(CO)CC12C1CC3CC(C1)CC2C3 (configuration not stated)	–	> 100 µM	–	> 100 µM	–	> 100 µM	–	> 100 µM	–	> 100 µM	–	> 100 µM	–	> 100 µM	–	> 100 µM	–	> 100 µM	–	> 100 µM
Cn1c(=O)c(-c2c(Cl)cccc2Cl)cc2cnc(Nc3ccc(N4CCOCC4)cc3)nc21	< 0.01 µM	> 100 µM	0.561 µM	> 22.6 µM	0.0137 µM	0.216 µM	0.0431 µM	0.209 µM	0.356 µM	1.78 µM	0.0272 µM	0.332 µM	–	1.24 µM	< 0.0125 µM	0.477 µM	< 0.0131 µM	–	< 0.0476 µM	0.804 µM
COc1cc(-c2nn(-c3cccc(NC(=O)c4cccc(C(F)(F)F)c4)c3)cc2-c2ccncc2)ccc1Cl	2.29 µM	> 50 µM	2.46 µM	> 50 µM	2.02 µM	> 50 µM	2.24 µM	17.6 µM	1.57 µM	26.6 µM	1.45 µM	> 50 µM	3.24 µM	> 50 µM	1.64 µM	5.17 µM	1.94 µM	> 50 µM	2.01 µM	> 50 µM
